The values that follow come from ChEMBL document CHEMBL1135778, “Synthesis and molecular modeling of new 1-aryl-3-[4-arylpiperazin-1-yl]-1-propane derivatives with high affinity at the serotonin transporter and at 5-HT(1A) receptors” (J Med Chem, 2002).

What is called Ki is the dissociation constant of the complex between target and ligand, obtained from inhibition or displacement. As usually defined, the inhibition is the change of the read-out against control, counted positive when it falls. The IC50 is the concentration at which inhibition is half-maximal.

Assay [1] addresses T1, 5-hydroxytryptamine receptor 1A (Rattus norvegicus, UniProt P19327).
T1 sequence (P19327 whole entry): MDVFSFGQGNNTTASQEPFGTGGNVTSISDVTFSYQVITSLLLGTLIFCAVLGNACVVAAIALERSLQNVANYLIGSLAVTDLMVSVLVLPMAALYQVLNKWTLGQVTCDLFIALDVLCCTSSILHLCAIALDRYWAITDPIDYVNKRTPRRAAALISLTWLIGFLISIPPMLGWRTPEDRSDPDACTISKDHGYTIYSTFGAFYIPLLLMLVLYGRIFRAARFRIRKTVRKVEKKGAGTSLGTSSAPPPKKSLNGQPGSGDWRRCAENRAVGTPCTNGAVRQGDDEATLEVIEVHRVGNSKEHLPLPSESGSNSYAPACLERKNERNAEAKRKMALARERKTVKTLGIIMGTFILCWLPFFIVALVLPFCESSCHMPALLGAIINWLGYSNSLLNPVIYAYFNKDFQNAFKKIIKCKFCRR
Kind of assay: Binding affinity towards 5-hydroxytryptamine 1A receptor in rat frontal cortex homogenates. The format is tissue-based.

Assay [2] has as its target Sodium-dependent serotonin transporter (Rattus norvegicus, UniProt P31652). Kind of assay: Binding affinity towards Serotonin transporter (5-HTT) in rat frontal cortex homogenates. It counts as tissue-based.
The target of assay [3] is T2, 5-hydroxytryptamine receptor 1A (Rattus norvegicus) (UniProt P19327).
T2 sequence (whole entry): T1 sequence (P19327 whole entry)
Kind of assay: Percent inhibition of (+)-8-OH-DPAT stimulated [35S]GTP-gamma-S, binding to 5-hydroxytryptamine 1A receptor in hippocampal membranes. The format is functional, cell membranes. Details: concentration or dose not given beside the values. The conditions noted are these: concentration not given here. On the technique in general: GTPγS resists hydrolysis and so accumulates on activated G proteins.

The target in assay [4] is T1, 5-hydroxytryptamine receptor 1A. Kind of assay: Inhibition of (+)-8-OH-DPAT stimulated [35S]GTP-gamma-S, binding to 5-hydroxytryptamine 1A receptor in hippocampal membranes. It counts as functional, cell membranes.
Assay [5] addresses T2, 5-hydroxytryptamine receptor 1A (Rattus norvegicus). Kind of assay: Percent increase of R(+)-8-OH-DPAT stimulated [35S]GTP-gamma-S, binding to 5-hydroxytryptamine 1A receptor in isolated rat hippocampal membranes. The format is functional, cell membranes. The following applies: Membrane.
The target is the same in assay [6]. Kind of assay: Antagonist activity to stimulate binding of [35S]-GTP-gamma S binding to 5-hydroxytryptamine 1A receptor in isolated rat hippocampal membranes. The format is functional, cell membranes. The conditions noted are these: Membrane, scale: (fM of GTP-gammaS bound).
Assay [7] shares this target. Kind of assay: Antagonist activity to stimulate binding of [35S]GTP-gamma-S, to 5-hydroxytryptamine 1A receptor in isolated rat hippocampal membranes. It counts as functional, cell membranes. The conditions noted are these: Membrane, scale: (fM of GTP-gammaS bound).
Assay [8] shares this target. Kind of assay: Inhibition of (+)-8-OH-DPAT stimulated [35S]GTP-gamma-S, binding in rat hippocampal membranes. The following applies: Hippocampus, Membrane, scale: (fM of GTP-gammaS bound). The format is functional, cell membranes.
The target of assay [9] is T3, 5-hydroxytryptamine receptor 1A (Mus musculus) (UniProt Q64264).
T3 sequence (whole entry): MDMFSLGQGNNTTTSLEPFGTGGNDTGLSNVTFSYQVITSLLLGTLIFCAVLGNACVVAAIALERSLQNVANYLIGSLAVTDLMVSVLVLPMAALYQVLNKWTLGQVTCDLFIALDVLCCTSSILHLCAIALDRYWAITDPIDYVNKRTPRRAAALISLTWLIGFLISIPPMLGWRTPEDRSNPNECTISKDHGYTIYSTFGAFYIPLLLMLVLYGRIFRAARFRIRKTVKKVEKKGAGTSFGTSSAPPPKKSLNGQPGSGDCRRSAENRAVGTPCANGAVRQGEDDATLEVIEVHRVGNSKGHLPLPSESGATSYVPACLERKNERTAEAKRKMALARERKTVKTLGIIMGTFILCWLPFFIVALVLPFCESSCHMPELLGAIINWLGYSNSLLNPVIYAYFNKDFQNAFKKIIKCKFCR
Kind of assay: Antagonist activity at 5-hydroxytryptamine 1A receptor against (+)-8-OH-DPAT induced hypothermia in mice at 1 mg/kg after 60 min. It counts as functional, organism-based. Details: dose 1 mg/kg.

Assay [10] deals with T3, 5-hydroxytryptamine receptor 1A (Mus musculus). Kind of assay: Antagonist activity at 5-hydroxytryptamine 1A receptor against (+)-8-OH-DPAT induced hypothermia in mice at 1 mg/kg after 15 min. The format is functional, organism-based. Details: dose 1 mg/kg.
For assay [11] the target is unchanged. Kind of assay: Antagonist activity at 5-hydroxytryptamine 1A receptor against (+)-8-OH-DPAT induced hypothermia in mice at 10 mg/kg after 60 min. The format is functional, organism-based. The arrangement: dose 10 mg/kg.
Assay [12] has the same target. Kind of assay: Antagonist activity at 5-hydroxytryptamine 1A receptor against (+)-8-OH-DPAT induced hypothermia in mice at 10 mg/kg after 30 min. The format is functional, organism-based. The arrangement: dose 10 mg/kg.
For assay [13] the target is unchanged. Kind of assay: Antagonist activity at 5-hydroxytryptamine 1A receptor against (+)-8-OH-DPAT induced hypothermia in mice at 10 mg/kg after 15 min. The format is functional, organism-based. Details: dose 10 mg/kg.
Assay [14] shares this target. Kind of assay: Antagonist activity at 5-hydroxytryptamine 1A receptor against (+)-8-OH-DPAT induced hypothermia in mice at 1 mg/kg after 30 min. It counts as functional, organism-based. The arrangement: dose 1 mg/kg.

Sequence of Sodium-dependent serotonin transporter (P31652 whole entry): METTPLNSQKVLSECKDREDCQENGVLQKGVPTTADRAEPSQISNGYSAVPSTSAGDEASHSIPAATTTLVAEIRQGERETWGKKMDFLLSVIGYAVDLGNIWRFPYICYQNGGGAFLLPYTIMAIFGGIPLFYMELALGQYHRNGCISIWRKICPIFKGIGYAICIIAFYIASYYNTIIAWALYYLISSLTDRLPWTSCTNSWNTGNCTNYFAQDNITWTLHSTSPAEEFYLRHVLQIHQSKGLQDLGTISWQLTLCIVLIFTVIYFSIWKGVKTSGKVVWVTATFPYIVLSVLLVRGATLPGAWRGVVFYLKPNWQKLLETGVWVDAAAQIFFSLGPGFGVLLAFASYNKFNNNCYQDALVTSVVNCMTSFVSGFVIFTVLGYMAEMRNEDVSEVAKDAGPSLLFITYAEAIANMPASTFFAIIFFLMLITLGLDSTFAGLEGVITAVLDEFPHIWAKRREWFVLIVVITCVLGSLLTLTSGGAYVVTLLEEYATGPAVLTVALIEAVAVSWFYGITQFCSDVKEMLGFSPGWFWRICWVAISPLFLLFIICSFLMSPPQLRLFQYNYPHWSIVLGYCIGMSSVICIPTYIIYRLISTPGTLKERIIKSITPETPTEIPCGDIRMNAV

On to `OC(CCN1CCN(c2cccc3ncccc23)CC1)c1csc2ccccc12` (stereo not given), for which the Ki in assay [1] (read-out: Ki) came out at 36.8 nM; in assay [2], 32.5 nM.

`OC(CCN1CCN(c2cccc3ccccc23)CC1)c1csc2ccccc12` (stereo not given): the results for the Ki in [1] (read-out: Ki) and in assay [2] were 66.7 nM and 81.7 nM, respectively.

Take `OC(CCN1CCN(c2cccc3c2OCO3)CC1)c1csc2ccc(F)cc12` (stereo not given): the Ki was 9.4 nM in assay [1] (read-out: Ki) and 58 nM in assay [2].

With `OC(CCN1CCN(c2cccc3c2OCCCO3)CC1)c1csc2ccccc12` (stereo not given), the results for the Ki in [1] and in assay [2] were 1.9 nM and 77 nM, respectively.

In the case of `OC(CCN1CCN(c2cccc3c2OCCCO3)CC1)c1csc2ccc(F)cc12` (stereo not given), the Ki in assay [1] (read-out: Ki) was found to be 3 nM; in [2] it was 21.2 nM. In addition, the inhibition in [3] is 84%. In assay [4], the IC50 stood at 360 nM. In addition, in assay [5], the Increase was 22.8%. Also, the Max came to 17.7 in assay [6] and 20.4 in [8]. For the same compound, the Basal came out at 14.4 in assay [7] and 18.7 in assay [8].

Regarding `OC(CCN1CCN(c2cccc3[nH]ccc23)CC1)c1csc2ccccc12` (stereo not given), the Change in body temperature in assay [9] is -1.13 °C; in [10], -2.08 °C; in assay [11] it was -0.8 °C; in assay [12], 0.84 °C; in [13] it was -1.03 °C; in [14], -1.59 °C. In assay [3], the inhibition came to 90%. In assay [4], this compound displayed an IC50 of 31.2 nM. This compound also yielded an Increase in assay [5] of 26.3%. The figures for the Max in [6] and in [8] were 16.9 and 13.9, respectively. In addition, the Basal in assay [7] turned out to be 13.4; in [8], 12.8.

`OC(CCN1CCN(c2cccc3[nH]ccc23)CC1)c1csc2ccc(F)cc12` (stereo not given): the Change in body temperature was -2.72 °C in assay [9]; -3.28 °C in [10]; -0.95 °C in [11]; -0.89 °C in assay [12]; -0.95 °C in [13]; -3.61 °C in [14]. The inhibition in [3] worked out at 110%. The compound further returned an IC50 in assay [4] of 16.1 nM. In assay [5], the Increase came to 35.5%. Further, the Max in assay [6] came to 13.7; in [8] it was 10.1. For the same compound, the Basal in assay [7] was determined as 10.1; in [8], 11.2.

Compound `OC(CCN1CCN(c2cccc3cccnc23)CC1)c1csc2ccc(F)cc12` (stereo not given) gave an Increase in assay [5] of 71.4%. Further, in [6], the Max was 23.9. Also, the Basal in assay [7] amounted to 13.9.

`OC(CCN1CCN(c2cccc3ccccc23)CC1)c1csc2ccc(F)cc12` (stereo not given) returned a Ki in assay [2] of 6 nM.

On to `OC(CCN1CCN(c2cnc3ccccc3c2)CC1)c1csc2ccccc12` (stereo not given), for which the Ki stood at 995 nM in assay [1] (read-out: Ki) and 4.2 nM in assay [2].

On to `CCCN(CCC)C1CCc2cccc(O)c2C1` (stereo not given), for which the Increase in assay [5] turned out to be 91.8%. Further, the values for the Max in assay [6] and in [8] were 25.9 and 23.8, respectively. Further, the Basal in assay [7] was 13.5; in [8] it was 13.

Take `OC(CCN1CCN(c2cccc3c2OCCO3)CC1)c1csc2ccc(F)cc12` (stereo not given): the Change in body temperature in assay [9] is -1.04 °C; in assay [10] it was -1.49 °C; in assay [11], -0.84 °C; in assay [12] it was -0.72 °C; in assay [13], -1.33 °C; in assay [14] it was -1.04 °C. Besides, the inhibition in assay [3] was 101%. The compound further registered a Ki in [2] of 16 nM. The IC50 in [4] turned out to be 31.2 nM. The Increase in assay [5] was found to be 17.9%. The Max in assay [6] turned out to be 14; in assay [8], 18.9. In addition, the Basal in assay [7] stood at 11.9; in [8], 19.1.

Turning to `OC(CCN1CCN(c2cccc3c2OCCO3)CC1)c1csc2ccccc12` (stereo not given), the Change in body temperature was -1.94 °C in assay [9]; -2.9 °C in assay [10]; -0.5 °C in assay [11]; -1.03 °C in [12]; -1.38 °C in assay [13]; -2.47 °C in [14]. For the same compound, the Ki came out at 5.7 nM in [1] (read-out: Ki) and 50 nM in assay [2]. In addition, the inhibition in assay [3] is 90%. In assay [4], this compound registered an IC50 of 56.2 nM. This compound also displayed an Increase in assay [5] of 3.4%. The Max in assay [6] was 16.1; in assay [8] it was 19.1. For the same compound, the Basal in [7] came out at 15.6; in assay [8], 18.5.

On to `OC(CCN1CCN(c2ccc3sccc3c2)CC1)c1csc2ccccc12` (stereo not given), for which the Ki amounted to 913 nM in [1] (read-out: Ki) and 3.2 nM in assay [2].

With `OC(CCN1CCN(c2cccc3cccnc23)CC1)c1csc2ccccc12` (stereo not given), the Change in body temperature in assay [9] was -1.09 °C; in assay [10] it was -2.38 °C; in assay [11] it was -0.2 °C; in [12], -0.52 °C; in assay [13], -0.8 °C; in assay [14] it was -1.86 °C. The results for the Ki in [1] (read-out: Ki) and in assay [2] were 6.3 nM and 24 nM, respectively. The inhibition in assay [3] was found to be 69%. In assay [4], this compound registered an IC50 of 18 nM. The Increase in assay [5] turned out to be 31%. In addition, the Max in assay [6] was 15.6; in [8], 19.7. The Basal was determined as 11.9 in [7] and 16.4 in assay [8].
